Source: US20190142718A1, “NOVEL USE” (DSM IP ASSETS B.V., priority 2017, published 2019)

Assays:
Experiment in all cases: Antimicrobial efficacy, challenge test in analogy to NF EN ISO11930
M. furfur = type: cell-based, Malassezia furfur
Experimental: (§1) The antimicrobial efficacy is assessed in analogy to the regulatory challenge test method (NF EN IS011930). Thus, a solution of 0.2 wt.-% of phytantriol in a physiological serum with 0.85 wt.-% NaCl supplemented with 10 wt.-% ethanol was prepared. A control was also prepared under sterile conditions based on a serum with 0.85 wt.-% NaCl and 10 wt.-% ethanol.
(§2) The control as well as the phytantriol solution were deposed in 96-deep well plates (1.6 ml/well). The wells were contaminated with the respective bacterial or the fungal strains as outlined in table 1 at 2.5*10^5 to 5.6*10^5 cfu/ml for the bacteria and 1*10^4 to 2.5*10^4 cfu/ml for the fungi to obtain the initial contamination as outlined in table 1. After the contamination, each well was thoroughly mixed to ensure a homogeneous distribution of the microorganism. Then each plate was incubated at 22° C. for 24h. The counting of the (remaining) population was carried out 24h after contamination.

A. brasiliensis = type: cell-based, Aspergillus brasiliensis
Experimental: as §1, §2

C. albicans = type: cell-based, Candida albicans
Experimental: as §1, §2

S. aureus = type: cell-based, Staphylococcus aureus
Experimental: as §1, §2

P. Acnes = type: cell-based, Propionibacterium acnes
Experimental: as §1, §2

S. epidermidis = type: cell-based, Staphylococcus epidermidis
Experimental: as §1, §2

CC(C)CCCC(C)CCCC(C)CCCC(C)(O)C(O)CO (stereo not drawn) [Phytantriol, 3,7,11,15-tetramethyl-hexadecane-1,2,3-triol]
colony counts 24 h (M. furfur; 0.2 wt.-% phytantriol in 0.85 wt.-% NaCl serum with 10 wt.-% ethanol, 22° C., 24 h after contamination, 0 h count 4000, control 24 h 775): 0 cfu/ml
antimicrobial effect (M. furfur; against Malassezia furfur, 0.2 wt.-%, 24 h): significant antimicrobial effect
colony counts 24 h (A. brasiliensis; 0.2 wt.-% phytantriol in 0.85 wt.-% NaCl serum with 10 wt.-% ethanol, 22° C., 24 h after contamination, 0 h count 10000, control 24 h 1000): 10 cfu/ml
antimicrobial effect (A. brasiliensis; against Aspergillus brasiliensis, 0.2 wt.-%, 24 h): significant antimicrobial effect
colony counts 24 h (C. albicans; 0.2 wt.-% phytantriol in 0.85 wt.-% NaCl serum with 10 wt.-% ethanol, 22° C., 24 h after contamination, 0 h count 25000, control 24 h 5000): 1000 cfu/ml
antimicrobial effect (C. albicans; against Candida albicans, 0.2 wt.-%, 24 h): significant antimicrobial effect
colony counts 24 h (S. aureus; 0.2 wt.-% phytantriol in 0.85 wt.-% NaCl serum with 10 wt.-% ethanol, 22° C., 24 h after contamination, 0 h count 250000, control 24 h 280000): 0 cfu/ml
antimicrobial effect (S. aureus; against Staphylococcus aureus, 0.2 wt.-%, 24 h): significant antimicrobial effect
colony counts 24 h (P. Acnes; 0.2 wt.-% phytantriol in 0.85 wt.-% NaCl serum with 10 wt.-% ethanol, 22° C., 24 h after contamination, 0 h count 310000, control 24 h 30000): 28000 cfu/ml
antimicrobial effect (P. Acnes; against Propionibacterium acnes, 0.2 wt.-%, 24 h): significant antimicrobial effect
colony counts 24 h (S. epidermidis; 0.2 wt.-% phytantriol in 0.85 wt.-% NaCl serum with 10 wt.-% ethanol, 22° C., 24 h after contamination, 0 h count 560000, control 24 h 28000): 0 cfu/ml
antimicrobial effect (S. epidermidis; against Staphylococcus epidermidis, 0.2 wt.-%, 24 h): significant antimicrobial effect
